Test results taken from paper PMC12030062, “From In Vitro Cytotoxicity to In Vivo Zebrafish Assays: A Study on 3,3-Dichloro β-, γ- and δ-Lactams and Their Biological Activity Profiles” (Pharmaceuticals, 2025).

Key:
[1] = Hemolysis assay with human erythrocytes; format: cell-based; settings: human, washed human erythrocyte suspension, pH 7.4; 10 µg/mL; read-out: degree of hemolysis
Protocol: (§1) In this context, non-hemolytic compounds are essential, as they enhance the safety and efficacy of lactam-based drugs by reducing adverse effects while maintaining their antitumor activity. In accordance with EU regulations (ISO 10993-4), the assessment of the biological compatibility of new compounds that may come into contact with the blood necessitates in vitro hemocompatibility evaluations. In this study, the extent of hemolysis induced by the different compounds was assessed by incubating them with an erythrocyte suspension. The hemolytic response of compounds 1–10 was evaluated at two concentrations (10 and 80 µg/mL), the results of which are presented in Figure 3.
(§2) • In Vitro Assay Using Human Erythrocytes • - Acquisition and Extraction of the Erythrocytes Human blood samples were obtained from the Banc de Sang i Teixits de Barcelona (Spain) from the Catalan Department of Health. Blood was deposited in tubes with the anticoagulant EDTA-K3. Blood samples were centrifuged at 3000 rpm and 4 °C for 10 min (Megafuge 2.0 R. Heraeus Instruments, Hanau, Germany) to induce sedimentation. Plasma was extracted with a Pasteur pipette. Next, the residual pellet was washed with PBS at pH 7.4. This procedure was repeated three times to remove residual leukocytes and platelets and to concentrate the erythrocytes. Following the last wash, the erythrocyte suspension was diluted (1:1) in PBS at pH 7.4 to obtain a suitable erythrocyte suspension (cell density of 8 × 10^9 cell/mL). • - Hemolysis Assay The hemolysis assay determined the capability of different compounds to induce the hemolysis of the erythrocyte membrane. Stock solutions of each compound at 1 mg/mL in PBS at pH 7.4 were prepared. Different volumes (10–80 μL) were placed in polystyrene tubes, and an aliquot of 25 µL of the erythrocyte suspensions was added to each tube. The final volume was 1 mL. The tubes were incubated at room temperature under rotatory conditions. Then, the tubes were centrifuged at 10,000 rpm for 5 min. The supernatants’ absorbance at 540 nm (Shimadzu UV-160A, Shimadzu, Duisburg, Germany) was compared with that of the positive (erythrocytes hemolyzed with distilled water) and negative (erythrocyte suspension in PBS at pH 7.4) controls. The degree of hemolysis was determined using the following equation: Hemolysis (%) = 100 × (Abs − Abs0)/(Abs100 − Abs0) where Abs, Abs0, and Abs100 are the absorbance of the test samples, of the suspension treated with isotonic phosphate–buffered saline (PBS), and of the suspension of complete hemolysis treated with distilled water, respectively. • In Vitro Essay Using Cell Cultures The murine Swiss albino fibroblasts (3T3) and the squamous cell carcinoma (A431) cell lines were obtained from Celltec UB. Cells were grown in DMEM medium (4.5 g/L glucose) supplemented with 10% (v/v) FBS, 2 mM L-glutamine, 100 U/mL penicillin, and 100 µg/mL streptomycin at 37 °C with 5% CO2. Cells were routinely cultured in 75 cm^2 culture flasks and were trypsinized using trypsin–EDTA when the cells reached approximately 80% confluence. The trypan blue assay, which allows for the direct identification and enumeration of the live (unstained) and dead (blue) cells in the cell population, was used to evaluate the viability of the cells in the cell suspension obtained. • - Cell Viability Assays Cell lines of 3T3 (1 × 10^5 cells/mL) and A431 (5 × 10^4 cells/mL) were grown at defined densities in the 60 central wells of a 96-well plate. The cells were incubated for 24 h in 5% CO2 at 37 °C. Then, the spent medium was removed, and the cells were incubated for 24 h, with their corresponding compound solutions (1 mg/mL) previously diluted in a minimum amount of DMF (dimethylformamide) and then in DMEM medium supplemented with 5% FBS (100 µL) at the required concentration range (80 or 250 µg/mL). […]

human erythrocytes = assay: Hemolysis assay with human erythrocytes; format: cell-based; settings: from 10 to 80 µg/mL
Protocol: as §1, §2

Zebrafish embryos = format: in vivo; settings: 74 hpf after 2-h washout; all tested concentrations up to 3.4 µg/mL
Protocol: Additionally, at 74 hpf, following a 2-h washout period, the response to a tactile stimulus or touch-evoked response, also known as a TER, was evaluated in embryos. This assay requires the embryos to have proper neuromuscular function. […] Further studies might be needed to elucidate the specific mechanisms by which the compound affects neurodevelopment or motor function and to determine whether these effects translate to other organisms. These findings are consistent with the broader body of research on anticancer agents, highlighting the importance of neurotoxicity evaluation in drug development and reinforcing the need for ongoing research to address these concerns. The videos and figures related to this part of the work are available in the Supplementary Materials.
• Zebrafish egg production and exposure The study was conducted in accordance with the local legislation and institutional requirements, according to the Generalitat de Catalunya Decree 53/2013, which regulates the use of animals for experimental and other scientific purposes. […] At the end of the test, dysmorphogenesis was evaluated in the live embryos only. The average lethality and dysmorphogenesis were calculated for 10 embryos per concentration, followed by averaging the results of at least three independent experiments. […]

## CC(C)(C)N1C(=O)C(Cl)(Cl)C1c1ccccc1 (stereo not drawn) [Compound 1]
[1]
  hemolysis at 10 µg/mL: 0.01%
Human erythrocytes
  change of hemolytic response as concentration increased: remained stable
Zebrafish embryos
  touch-evoked response (TER), swimming distance: significant neurodevelopmental adverse effect
